# Laboratory results taken from PubChem BioAssay (NCI).
# Several values for one entry are separate records, joined by “and”; a condition that tells them apart may be missing. Identical values can stand only once.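 Method: 48-hour compound exposure of cells in 96-well plates, five concentrations, linear interpolation of endpoints. GI50: concentration for 50% inhibition of growth. TGI: concentration producing complete growth inhibition.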
# Key:
# Assay in all cases: inhibition of tumour cell growth, NCI panel, 48 h
# [1] = test system: MALME-3M melanoma
# [2] = test system: SW-620 colon
# [3] = test system: UO-31 renal
# [4] = test system: OVCAR-3 ovarian
# [5] = test system: KM12 colon
# [6] = test system: U251 CNS
# [7] = test system: HCC-2998 colon
# [8] = test system: SK-MEL-2 melanoma
# [9] = test system: NCI-H522 lung
# [10] = test system: DU-145 prostate
SMILES,TGI [1],TGI [2],TGI [3],TGI [4],TGI [5],TGI [6],TGI [7],TGI [8],TGI [9],GI50 [10] [µM],TGI [10] [µM],GI50 [2] [µM],GI50 [3] [µM],GI50 [5] [µM],GI50 [6] [µM],GI50 [7],GI50 [9] [µM],GI50 [1] [µM],GI50 [4] [µM],GI50 [8]
COC(=O)C(=O)C(C(=O)OC)C(=O)C(=O)Nc1c(C)cccc1C (centres undefined),> 100 µM,> 100 µM,> 100 µM,> 100 µM,> 100 µM,> 100 µM,> 100 µM,> 100 µM,> 100 µM,,,,,,,,,,,
COc1cc([N+](=O)[O-])c(OC)cc1-c1nc2sc(C)c(C)n2c1/C(N)=N/C(=N)N,,> 100 µM,> 100 µM,,> 100 µM,> 100 µM,> 100 µM,,> 100 µM,> 100,> 100,9.8,> 100,> 100,2.29,> 100 µM,> 100,,,
O=C1[C@@H]2C(c3ccc(Br)cc3)=NO[C@@H]2C(=O)N1c1ccc(Cc2ccc(N3C(=O)[C@H]4C(c5ccc(Br)cc5)=NO[C@H]4C3=O)cc2)cc1,> 40 µM,> 40 µM,> 40 µM,> 40 µM,> 3.48 µM,> 3.48 µM,> 3.48 µM,> 40 µM,> 40 µM,,,> 40,> 40,,,,> 40,> 40,> 40,> 40 µM
Cc1ccc(NC(=O)CCCC(=O)CC(=O)c2ccc(Br)cc2)cc1,> 100 µM,> 100 µM,> 100 µM,> 100 µM,> 100 µM,> 100 µM,> 100 µM,> 100 µM,> 100 µM,,,,,,,,,,,
CN=c1ss/c(=N\C(=S)N(C)C)n1C,> 100 µM,> 100 µM,> 100 µM,,> 100 µM,> 100 µM,> 100 µM,> 100 µM,,,,,,,,,,,,
O=C1C(c2ccccc2)=C(c2ccccc2)C(c2ccc(Cc3ccc(C4=C(c5ccccc5)C(=O)C(c5ccccc5)=C4c4ccccc4)cc3)cc2)=C1c1ccccc1,> 100 µM,> 100 µM,> 100 µM,> 100 µM,> 100 µM,> 100 µM,,> 100 µM,> 100 µM,,,,,,,,,,,
COc1cc(C2c3cc4c(cc3[C@@H](NCCN(C)C)C3COC(=O)[C@H]23)OCO4)cc(OC)c1O (some centres undefined),1.61 µM and 2.3 µM,3.51 µM and 3.71 µM,0.633 µM and 1.32 µM,2.81 µM and 3.31 µM,2.22 µM and 2.63 µM,0.365 µM and 1.33 µM,1.69 µM and 2.64 µM,1.45 µM and 3.19 µM,1.76 µM and 2.2 µM,,,,,,,0.383 µM and 1.21 µM,,,,0.397 µM and 1.22 µM
CC(C)(CN1C(=O)C(Cl)=C(Cl)C1=O)CN1C(=O)C(Cl)=C(Cl)C1=O,16.7 µM,15.3 µM,47.2 µM,23.2 µM,57.4 µM,38.7 µM,39.4 µM,41 µM,4.91 µM,,,,,,,,,,,
Cc1nc(N)nc(N)c1CCCCc1ccc(N)cc1,18.2 µM,19.8 µM,> 100 µM,20.9 µM,21.7 µM,17.6 µM,15.7 µM,21.3 µM,16 µM,,,,,,,,,,,
O=S1(=O)N2CN3CN(C2)CN1C3,324 µM,57.8 µM and 113 µM,410 µM,,306 µM,,571 µM,473 µM,412 µM,,,,,,,,,,,
O=[N+]([O-])c1ccc(C2=Nc3ccccc3S(=O)C(c3ccccc3)C2)cc1 (centres undefined),> 100 µM,52.8 µM,32.2 µM,37.3 µM,41.3 µM,,34.9 µM,> 100 µM,35.3 µM,,,,,,,,,,,
COc1cccc(/C=C/C(=O)c2ccc3cc(OC)ccc3c2)c1,,20.5 µM,19 µM,22.8 µM,22.9 µM,42 µM,,> 50 µM,,8.54,17.5,7.03,9.25,9.91,14,,,,9.67,48.3 µM
C/C(=N\O)c1ccc2ccc3ccccc3c2c1,50.5 µM,> 100 µM,> 100 µM,90.9 µM,45 µM,> 100 µM,,> 100 µM,72.7 µM,,> 100,,,,,,,,,
CCCCC1=CSC(c2ccccc2)=C(c2ccccc2)S1,,> 100 µM,> 100 µM,> 100 µM,> 100 µM,> 100 µM,> 100 µM,,,,,,,,,,,,,
COc1ccccc1NC(=O)C1=C(C)NC(C)=C(C(=O)Nc2ccccc2OC)C1c1ccccc1[N+](=O)[O-],36.2 µM,,37.6 µM,39.1 µM,35 µM,29.7 µM,33 µM,26 µM,26.8 µM,,,,,,,,,,,
CCOC(=O)CSc1cc(Cl)c(C)cc1S(=O)(=O)/N=C(/N=C/c1ccc([N+](=O)[O-])s1)NNC,55.3 µM,> 100 µM,> 100 µM,24.7 µM,42.2 µM,38.7 µM,,59.1 µM,79.7 µM,7.45,41.2,31.1,36.6,18.5,17,,30.2,19.9,10.3,31 µM
CC(C)(C)c1cc(CCC(=O)Nc2ccc(Cl)cc2)[nH]c(=S)n1,> 100 µM,> 100 µM,> 100 µM,> 100 µM,> 100 µM,> 100 µM,> 100 µM,> 100 µM,> 100 µM,,,,,,,,,,,
Nc1nnc2c(-c3ccccc3)[nH]nc2n1,,> 100 µM,> 100 µM,> 100 µM,> 100 µM,,> 100 µM,> 100 µM,> 100 µM,,,,,,,,,,,
COc1cc[c]([Sn]([c]2ccc(OC)cc2)([c]2ccc(OC)cc2)[c]2ccc(OC)cc2)cc1,8.43 µM,55.9 µM,38 µM,33.7 µM,,72.2 µM,50.5 µM,> 100 µM,,,,18.9,14.1,,20.8,17.8 µM,,3.31,12.5,28.2 µM
Nc1nncc2c1c(Br)cn2C1OC(CO)C(O)C1O (centres undefined),> 100 µM,> 100 µM,> 100 µM,> 100 µM,> 100 µM,> 100 µM,> 100 µM,> 60.9 µM,> 100 µM,,,,,,,,,,,
NC(=O)c1ccc2c(c1)-c1nc-2nc2[n-]c(nc3nc(nc4[n-]c(n1)c1ccc(C(N)=O)cc41)-c1ccc(C(N)=O)cc1-3)c1ccc(C(N)=O)cc21.[Co+2],> 50 µM,> 50 µM,,> 50 µM,> 50 µM,> 50 µM,,> 50 µM,> 50 µM,,,26.9,,> 50,> 50,,> 50,> 50,> 50,> 50 µM
